Source: patent US20220289685A1, “ANTIMALARIAL HEXAHYDROPYRIMIDINE ANALOGUES” (UCB BIOPHARMA SRL, priority 2019, published 2022)
Structures can show the parent of a compound that is named as a salt.

Test system: Plasmodium falciparum 3D7 strain
Assay: P. falciparum 3D7 asexual blood stage assay (SYBR green readout)
Assay type: cell-based
Conditions: Plasmodium falciparum, 3D7, Erythrocyte, 72 h
How it was run: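 P. falciparum 3D7 in A+ erythrocytes (5% haematocrit, 0.5% parasitaemia) exposed 72 h at 37 °C under 1% O2/3% CO2 to 20-point 1.5-fold titrations, 50,000–15 nM in 0.5% DMSO. SYBR green lysis overnight, fluorescence 485/528 nm; normalized to mefloquine and DMSO, EC50 from biphasic two-site fit.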

Row | SMILES | IC50 [nM]
1 | C[C@@H]1C[C@H](N2C(=N)N[C@](C)(c3cccc(NC(=O)c4ccc(F)cc4C(F)(F)F)c3Cl)CC2=O)CCO1 (relative stereo) [Example 80, N-(2-Chloro-3-{(4S)-2-imino-4-methyl-1-[(2R*,4R*)-2-methyl-tetrahydropyran-4-yl]-6-oxo-hexahydropyrimidin-4-yl}phenyl)-4-fluoro-2-(trifluoromethyl)-benzamide trifluoroacetic acid salt] | 61
2 | C[C@@H]1C[C@H](N2C(=N)N[C@](C)(c3cccc(NC(=O)c4cc(C(F)(F)F)nn4C)c3Cl)CC2=O)CCO1 (relative stereo) [Example 32, N-(2-Chloro-3-{(4S)-2-imino-4-methyl-1-[(2R*,4R*)-2-methyl-tetrahydropyran-4-yl]-6-oxo-hexahydropyrimidin-4-yl}phenyl)-2-methyl-5-(trifluoromethyl)-pyrazole-3-carboxamide trifluoroacetic acid salt] | 55
3 | C[C@@H]1C[C@H](N2C(=N)N[C@](C)(c3cccc(NC(=O)c4ccc(Cl)cn4)c3Cl)CC2=O)CCO1 (relative stereo) [Example 63, 5-Chloro-N-(2-chloro-3-{(4S)-2-imino-4-methyl-1-[(2R*,4R*)-2-methyltetrahydropyran-4-yl]-6-oxo-hexahydropyrimidin-4-yl]phenyl)-pyridine-2-carboxamide hydrochloride] | 41
4 | Cc1cc(C(=O)Nc2cccc([C@]3(C)CC(=O)N([C@@H]4CCO[C@H](C)C4)C(=N)N3)c2Cl)c2nccn2c1 (relative stereo) [Example 28, N-(2-Chloro-3-{(4S)-2-imino-4-methyl-1-[(2R*,4R*)-2-methyl-tetrahydropyran-4-yl]-6-oxo-hexahydropyrimidin-4-yl}phenyl)-6-methylimidazo[1,2-a]pyridine-8-carboxamide trifluoroacetic acid salt] | 24
5 | C[C@@H]1C[C@H](N2C(=N)N[C@](C)(c3cccc(NC(=O)c4cncc(N(C)C)n4)c3Cl)CC2=O)CCO1 (relative stereo) [Example 91, N-(2-Chloro-3-{(4S)-2-imino-4-methyl-1-[(2R*,4R*)-2-methyl-tetrahydropyran-4-yl]-6-oxo-hexahydropyrimidin-4-yl]phenyl)-6-(dimethylamino)pyrazine-2-carboxamide hydrochloride] | 116
6 | C[C@@H]1C[C@H](N2C(=N)N[C@](C)(c3cccc(NC(=O)c4cc(C(F)(F)F)ccc4F)c3Cl)CC2=O)CCO1 (relative stereo) [Example 83, N-(2-Chloro-3-{(4S)-2-imino-4-methyl-1-[(2R*,4R*)-2-methyl-tetrahydropyran-4-yl]-6-oxo-hexahydropyrimidin-4-yl}phenyl)-2-fluoro-5-(trifluoromethyl)-benzamide trifluoroacetic acid salt] | 18
7 | C[C@@H]1C[C@H](N2C(=N)N[C@](C)(c3cccc(NC(=O)c4cccc(Cl)c4F)c3Cl)CC2=O)CCO1 (relative stereo) [Example 97, 3-Chloro-N-(2-chloro-3-{(4S)-2-imino-4-methyl-1-[(2R* ,4R*)-2-methyltetrahydropyran-4-yl]-6-oxo-hexahydropyrimidin-4-yl]phenyl)-2-fluorobenzamide hydrochloride] | 21
8 | C[C@@H]1C[C@H](N2C(=N)N[C@](C)(c3cccc(NC(=O)c4ccc(F)cc4OC(F)(F)F)c3Cl)CC2=O)CCO1 (relative stereo) [Example 102, N-(2-Chloro-3-{(4S)-2-imino-4-methyl-1-[(2R*,4R*)-2-methyl-tetrahydropyran-4-yl]-6-oxo-hexahydropyrimidin-4-yl}phenyl)-4-fluoro-2-(trifluoromethoxy)-benzamide hydrochloride] | 35
9 | C[C@@H]1C[C@H](N2C(=N)N[C@](C)(c3cccc(NC(=O)c4ccc(C(F)(F)F)nn4)c3Cl)CC2=O)CCO1 (relative stereo) [Example 59, N-(2-Chloro-3-{(4S)-2-imino-4-methyl-1-[(2R*,4R*)-2-methyl-tetrahydropyran-4-yl]-6-oxo-hexahydropyrimidin-4-yl]phenyl)-6-(trifluoromethyl)pyridazine-3-carboxamide hydrochloride] | 114

Same assay, conditions: Plasmodium falciparum, Erythrocyte; P. falciparum 3D7 in human erythrocytes, 72 h incubation, SYBR green fluorescence; read-out: IC50

Row | IC50 [nM] | SMILES
10 | 122 | C[C@@H]1C[C@H](N2C(=N)N[C@](C)(c3cccc(NC(=O)c4ncn5ccccc45)c3Cl)CC2=O)CCO1 (relative stereo) [Example 60, N-(2-Chloro-3-{(4S)-2-imino-4-methyl-1-[(2,R*,4R*)-2-methyl-tetrahydropyran-4-yl]-6-oxo-hexahydropyrimidin-4-yl}phenyl)-imidazo[1,5-a]pyridine-1-carboxamide hydrochloride]
11 | 10 | C[C@@H]1C[C@H](N2C(=N)N[C@](C)(c3cccc(NC(=O)c4cccc5c4OCO5)c3Cl)CC2=O)CCO1 (relative stereo) [Example 86, N-(2-Chloro-3-{(4S)-2-imino-4-methyl-1-[(2R*,4R*)-2-methyl-tetrahydropyran-4-yl]-6-oxo-hexahydropyrimidin-4-yl]phenyl)-1,3-benzodioxole-4-carboxamide trifluoroacetic acid salt]
